Test results as given in patent US11679065B2, “Compositions with sulfur having enhanced efficacy and aesthetics” (The Procter & Gamble Company, priority 2020, dated 2023).

What was measured:
Malassezia [1] = experiment: Minimal inhibitory concentration of sulfur (known value); format: cell-based; settings: generally accepted MIC, gray box in FIGS. 1-4
Procedure: A dissolution and diffusion model is utilized to help dimension sulfur solubility in sebum over a 24 hour period. The model predicts where sulfur concentration will rise above the minimal inhibitory concentration (MIC is known to be in the range of 10-50 ppm for sulfur), for the fungus that causes dandruff (Malassezia). The model factors in sulfur dissolution varying sebum thickness and sebum production rate over the 24 hour period as well as a loss term for sulfur migration into the scalp/stratum corneum. FIGS. 1-4) show simulation outputs for mean sulfur particles sizes, 2, 34, 100 and 150 micron sulfur particles respectively wherein each graph is a compilation of curves representing variations in initial sebum thickness and production rate. The gray box in each figure represents a range of sulfur concentrations that encompass the generally accepted MIC (log 10(MIC) range is 1-1.7). It is observed from the simulations that as particle size increases, the approximate number of hours that sulfur concentration is above the MIC expands until the particle size of about 150 microns, wherein the dissolution of sulfur in sebum becomes the rate limiting step and the concentration of sulfur never exceeds the MIC needed for a dandruff benefit.

Malassezia [2] = settings: fungus that causes dandruff (Malassezia); known range; cited from earlier work

S1SSSSSSS1 [Sulfur]
log 10(MIC) range (Malassezia [1]): 1-1.7 | minimal inhibitory concentration (MIC) (Malassezia [2]): 10-50 ppm
